Reference: US20240398787A1, “TREATMENT OF MAJOR DEPRESSIVE DISORDER” (AbbVie Inc., priority 2021, published 2024)

What was measured:
[1] = tested on: patients with major depressive disorder (MDD); experiment: Hamilton Depression Rating Scale-17 (HAMD-17) total score, Clinical Study A; type: in vivo, human; conditions: ANCOVA and LOCF; for LSMD vs placebo, HAMD-17: week 6
Procedure: (§1) A global, multicenter, randomized, double-blind (DB), placebo-controlled, parallel-group, fixed-dose study compared cariprazine 1.5 mg/day and cariprazine 3 mg/day with placebo as an adjunctive treatment to ongoing ADT in outpatients with a diagnosis of MDD (via the Diagnostic and Statistical Manual of Mental Disorders, Fifth Edition [DSM-5]) having an inadequate response, as measured by the modified Antidepressant Treatment Response Questionnaire (ATRQ), to 1 to 3 antidepressants administered during the current episode at an adequate dose and adequate duration. Adequate dose was defined as a dose above the minimum labeled dose (per package insert). Adequate duration was defined as continuous ADT treatment for at least 6 weeks, with a minimum of 3 of 6 weeks above the minimal dose.
(§2) The study consisted of up to 14 days screening (with up to an additional 7 days of needed) and washout of prohibited medications followed by 6 weeks of double-blind (DB) treatment followed by a 4-week safety follow-up. At the end of the screening period, patients meeting the entry criteria for the study were randomized (1:1:1) to 1 of 3 double-blind treatment groups. Study treatment groups were: cariprazine 1.5 mg/day+antidepressant therapy and cariprazine 3 mg/day+antidepressant therapy. The control group received matching placebo+antidepressant therapy.
(§3) Dosage/Dose Regimen: Investigational product (cariprazine or placebo) in the form of capsules packaged in blister packs will be provided. No investigational product was administered during the screening/washout period; patients continued the same antidepressant and dose they were on at screening. Patients were taking more than one antidepressant at screening, regardless of the indication, discontinued all other antidepressants prior to baseline (Visit 2). During the double-blind treatment period (6 weeks), patients were administered 1 capsule orally per day in addition to their ongoing ADT. Patients in the 1.5 mg/day+ADT arm were administered 1.5 mg+ADT starting at Visit 2 (Week 0). Patients in the 3 mg/day+ADT arm were administered 1.5 mg+ADT starting at Visit 2 (Week 0) for 2 weeks and then titrate to 3 mg/day+ADT starting at Visit 4 (Week 2). Patients were supplied with identically appearing capsules of either cariprazine 1.5 mg, cariprazine 3 mg, or placebo.
A randomized, double-blind, placebo-controlled, multicenter trial with 759 participants was conducted in United States, Bulgaria, Estonia, Germany, Hungary, Ukraine, and the United Kingdom. […]

[2] = tested on: patients with major depressive disorder (MDD); experiment: Hamilton Anxiety Rating Scale (HAM-A) total score, Clinical Study A; type: in vivo, human; conditions: for LS mean change from baseline to week 6, HAM-A / LSMD vs placebo, HAM-A: MMRM; for HAM-A remission rate (total score ≤7) / HAM-A remission, odds ratio vs placebo / HAM-A response rate (≥50% score reduction from baseline) / HAM-A response, odds ratio vs placebo / LSMD vs placebo, HAM-A: week 6; for HAM-A remission rate (total score ≤7) / HAM-A remission, odds ratio vs placebo / HAM-A response rate (≥50% score reduction from baseline) / HAM-A response, odds ratio vs placebo: LOCF
Procedure: as §1, §2, §3
A randomized, double-blind, placebo-controlled, multicenter trial with 759 participants was conducted in United States, Bulgaria, Estonia, Germany, Hungary, Ukraine, and the United Kingdom. Following a screening period of up to 14 days (with up to an additional 7 days if needed), which included a washout of prohibited psychotropic medications except for ongoing ADT, patients with a partial response to their antidepressant monotherapy were randomized into three treatment groups (1:1:1). One group received cariprazine 1.5 mg/d+ADT, one received cariprazine 3.0 mg/d+ADT, and one group received placebo+ADT. All participants randomized to cariprazine began on 1.5 mg/d; cariprazine 1.5 mg/d patients remained at that dosage, while cariprazine 3.0 mg/d patients received 1.5 mg/d for 2 weeks and increased to 3.0 mg/d on day 15.
The primary and secondary efficacy parameters were change from baseline to week 6 in Montgomery-Åsberg Depression Rating Scale (MADRS) total score and Clinical Global Impressions-Severity (CGI-S) score, respectively (screening, baseline, and weeks 1, 2, 4, and 6). Additional efficacy parameters (screening, baseline, and ≥1 double-blind visit) included: MADRS response (≥50% MADRS total score reduction) and remission (MADRS total score ≤10); change from baseline in HAMD-17 total score and Hamilton Anxiety Rating Scale (HAM-A) total score (32); and Clinical Global Impressions-Improvement (CGI-I) score and response (CGI-I score ≤2).
The Hamilton Anxiety Rating Scale (HAM-A) (Hamilton 1959) is a clinician-rated scale which consists of 14 items, each rated on a 5-point scale ranging from 0 (not present) to 4 (very severe). […]

CN(C)C(=O)N[C@H]1CC[C@H](CCN2CCN(c3cccc(Cl)c3Cl)CC2)CC1 [Cariprazine, trans-N-{4-[2-[4-(2,3-dichlorophenyl)piperazin-1-yl]ethyl]cyclohexyl}-N′,N′-dimethylurea]
LS mean change from baseline to week 6, HAMD-17 total score ([1]; 1.5 mg/d + ADT): −12.7
LSMD vs placebo, HAMD-17 ([1]; 1.5 mg/d + ADT): −2.1
LS mean change from baseline to week 6, HAMD-17 total score ([1]; 3 mg/d + ADT): −11.9
LSMD vs placebo, HAMD-17 ([1]; 3 mg/d + ADT): −1.2
LS mean change from baseline to week 6, HAM-A ([2]; 1.5 mg/d + ADT): −9.1
HAM-A remission rate (total score ≤7) ([2]; 1.5 mg/d + ADT): 28.7%
HAM-A remission, odds ratio vs placebo ([2]; 1.5 mg/d + ADT): 1.2
HAM-A response rate (≥50% score reduction from baseline) ([2]; 1.5 mg/d + ADT): 40.9%
HAM-A response, odds ratio vs placebo ([2]; 1.5 mg/d + ADT): 1.3
LSMD vs placebo, HAM-A ([2]; 1.5 mg/d + ADT): −1.3
LS mean change from baseline to week 6, HAM-A ([2]; 3 mg/d + ADT): −8.6
HAM-A remission rate (total score ≤7) ([2]; 3.0 mg/d + ADT): 27.9%
HAM-A remission, odds ratio vs placebo ([2]; 3.0 mg/d + ADT): 1.1
HAM-A response rate (≥50% score reduction from baseline) ([2]; 3.0 mg/d + ADT): 41.0%
HAM-A response, odds ratio vs placebo ([2]; 3.0 mg/d + ADT): 1.3
LSMD vs placebo, HAM-A ([2]; 3 mg/d + ADT): −0.8
